The results in this text go back to paper PMC12494543, “Identification of ALKBH6 as a nucleotide demethylase with a distinct substrate preference” (The Journal of Biological Chemistry, 2025).

Assay [1] concerns the target T1, ALKBH6 (Homo sapiens, UniProt Q3KRA9).
T1 construct: His-tag; made in house
As to the kind of experiment: FDH-coupled formaldehyde release demethylation assay. It counts as biochemical. To be noted: me-dNMPs as substrate. As to the method: NMPs including 1meAMP (Jena Bioscience, NU-1029-1,) 7meGMP (Jena Bioscience, NU-1135S), 6me-AMP (Sigma, M2780) were purchased. N-methylated deoxy-NMPs were prepared by methylating chemically synthesized 30-mer oligonucleotide containing either dA, dG, dC, or dT by MMS (5%, v/v) (0.59 M) MMS (Sigma, 129925) and purified as described before ([17]). The oligonucleotides were digested with nuclease P1 (NEB) at 37 °C for 4 h to produce deoxy-NMPs. After heat inactivating the nuclease, dNMPs were purified by HPLC and used for the demethylation reaction. N-methylated NMPs were purified similarly, using RNA as the starting material. For the demethylation reaction, ALKBH6 (1 μM) and me-dNMPs (1 mM) were mixed in the dioxygenase reaction buffer and incubated at 37 °C for 30 min. Formaldehyde release was detected by FDH-coupled DNA repair assay as described before ([32], [33]). Briefly, 1 mM NAD+ and 0.01 U FDH were added to the dioxygenase reaction buffer containing methylated nucleotide and ALKBH6. NADH generated was detected by the characteristic absorption peak (340 nm) using a 96-well multimode reader (Synergy, Biotek Instrument). Formaldehyde production was quantified from the standard curve and the initial velocities were determined using various substrate concentrations. The results were plotted and analyzed using GraphPad Prism.

Assay [2] concerns the target T1, ALKBH6. As to the kind of experiment: Uncoupled succinate production (SucCD colorimetric assay). The assay is classed as biochemical. Particulars: CoCl2 20 μM, no substrate. How it is done:
The uncoupled succinate production reaction was set up in two steps as described before ([54]). In the initial step, WT ALKBH6 (5–20 μM) was incubated in dioxygenase reaction buffer (20 mM Hepes, pH 8.0, 0.2 mM 2OG, 2 mM ascorbate, 5 μM Fe(NH4)2(SO4)2) for 1 h at 37 °C to form succinate. Then the reaction mixture (50 μl) was mixed with recombinant sucCD (1 μM) in SucCD reaction buffer (2 mM MES, pH 6.5, 5 mM ATP 3.258 mM CoA, 50 mM MgCl2) and further incubated for 30 min at 37 °C. Finally, molybdate solution was added for colorimetric detection and the succinate concentration was detected from the standard curve. For inhibition, CoCl2 (20 μM) was used. The results were plotted and analyzed using GraphPad Prism (www.graphpad.com).

T1 sequence (Q3KRA9 whole entry): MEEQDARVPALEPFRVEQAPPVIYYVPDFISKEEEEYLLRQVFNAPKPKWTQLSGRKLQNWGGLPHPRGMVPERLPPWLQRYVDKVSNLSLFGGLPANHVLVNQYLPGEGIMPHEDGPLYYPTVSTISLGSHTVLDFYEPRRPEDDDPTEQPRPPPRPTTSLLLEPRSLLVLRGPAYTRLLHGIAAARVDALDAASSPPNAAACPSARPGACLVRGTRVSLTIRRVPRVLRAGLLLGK

Turning to `[Cl][Co][Cl]` [Co(II), cobalt chloride, reference compound], the “inhibition of ALKBH6-mediated demethylation” value at ALKBH6 [1] is given as “completely inhibited”. At ALKBH6 [2], the “inhibition of uncoupled succinate production” value is “inhibited”.
